Reference: patent US20250099420A1, “SMALL MOLECULE MODULATORS OF GPR139 COMPLEX” (University of Florida Research Foundation, Incorporated, priority 2022, published 2025)
Like-named read-outs stand apart in the source and are kept apart here.

Legend:
parental HEK cells = assay: HEK parental Agonist Counterscreen Assay (non-transfected cells); format: cell-based; conditions: for Averaged Max % Response (±St. Dev.): activity relative to known control
From the text: The high control for the agonist counterscreen was Forskolin not acetylcholine.

GPR139 = target: T1, GPR139 (Homo sapiens, UniProt Q6DWJ6); assay: GPR139 Agonist titration / agonist counterscreen assay (calcium detection, HEK-GPR139 cells); format: cell-based; design: expressed in transfected cells; host or cells: HEK Aequorin cells, Maxcyte transient transfection; conditions: GPR139 Agonist Activity; for Averaged Max % Response (±St. Dev.): activity relative to known control; for EC50: read-out: EC50
T1 sequence (Q6DWJ6 1-353): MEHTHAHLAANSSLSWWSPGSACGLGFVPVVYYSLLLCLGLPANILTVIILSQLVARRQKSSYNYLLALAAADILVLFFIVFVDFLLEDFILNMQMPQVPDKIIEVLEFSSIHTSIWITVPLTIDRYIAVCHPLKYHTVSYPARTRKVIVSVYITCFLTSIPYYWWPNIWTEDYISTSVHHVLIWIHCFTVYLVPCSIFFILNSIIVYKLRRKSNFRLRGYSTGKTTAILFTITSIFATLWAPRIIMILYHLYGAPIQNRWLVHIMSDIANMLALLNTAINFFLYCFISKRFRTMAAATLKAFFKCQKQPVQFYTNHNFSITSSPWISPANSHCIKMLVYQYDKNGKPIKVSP
Procedure: GPR activity was assessed using a calcium detection assay. […] Negative control samples were treated with DMSO. […] Intracellular calcium was measured using Calcium 5.

[1] = HEK Agonist Activity section of Table 4 (parental HEK counterscreen)
[2] = values printed in E-notation without unit
[3] = Homo sapiens, HEK293, HEK Agonist Activity section of Table 4 (parental HEK counterscreen)
[4] = Homo sapiens, HEK293, HEK Agonist Activity, parental non-transfected HEK cells

Structure (SMILES) | Lipophilic Efficiency (logD) (parental HEK cells; HEK Agonist Activity section) | Lipophilic Efficiency (logP) (parental HEK cells; HEK Agonist Activity section) | Averaged Max % Response (±St. Dev.) (parental HEK cells; HEK Agonist Activity section) [%] | Averaged Max % Response (±St. Dev.) (GPR139) [%] | Lipophilic Efficiency (logD) (GPR139; based on logD) | Lipophilic Efficiency (logP) (GPR139; based on logP) | Hill Slope (GPR139; fitted dose-response curve) | Efficiency Ligand (GPR139; ligand efficiency) | EC50 (GPR139; [2]) [nM] | EC50 (parental HEK cells; [3]) [nM] | Lipophilic Efficiency (logD) (parental HEK cells; HEK Agonist Activity) | Lipophilic Efficiency (logP) (parental HEK cells; HEK Agonist Activity) | Averaged Max % Response (±St. Dev.) (parental HEK cells; HEK Agonist Activity) [%] | EC50 (parental HEK cells; [4]) [nM] | other results
CC(C)C(C)(C#N)NC(=O)CSc1nnc(Cc2cccc3ccccc23)n1N (stereo not shown) [SR-01000052065] | 2.71 | 2.62 | 8.92 ± 9.62 | 98.20 ± 7.98 | 4.63 | 4.54 | 0.53 | 0.33 | 182 |  |  |  |  |  | EC50 (parental HEK cells; [1]): > 15200 nM
COc1ccc(Cl)cc1C(=O)NNC(=O)CCc1ccc([N+](=O)[O-])cc1 [SR-01000054340] | 2.25 | 2.23 | 20.66 ± 8.49 | 96.13 ± 10.69 |  |  |  |  |  | > 14200 |  |  |  |  | Efficiency Ligand (GPR139): 0.33; Hill Slope (GPR139): 0.74; Lipophilic Efficiency (logD) (GPR139): 3.45; Lipophilic Efficiency (logP) (GPR139): 3.43
Cc1ccc2c(CC(=O)NNC(=O)CC34CC5CC(CC(C5)C3)C4)coc2c1 [SR-01000054849] | 1.41 | 1.41 | 1.19 ± 3.75 | 93.14 ± 10.62 | 3.67 | 3.67 | 0.47 | 0.35 | 81.6 |  |  |  |  |  | EC50 (parental HEK cells; [1]): > 14800 nM
COc1ccc2cc(C3(C)CC(=O)N(CC(=O)N(CC(C)C)CC(C)C)C3=O)ccc2c1 (stereo not shown) [SR-01000054961] | 1.27 | 1.27 | 6.24 ± 6.42 | 79.59 ± 15.93 |  |  |  |  |  | > 14100 |  |  |  |  | Efficiency Ligand (GPR139): 0.26; Hill Slope (GPR139): 0.85; Lipophilic Efficiency (logD) (GPR139): 2.43; Lipophilic Efficiency (logP) (GPR139): 2.43
COc1cc(C(=O)NNC(=O)COc2ccc3ccccc3c2)cc(OC)c1OC [SR-01000056004] | 2.56 | 2.55 | −16.39 ± 11.45 | 81.95 ± 3.88 |  |  |  |  |  | > 15100 |  |  |  |  | Efficiency Ligand (GPR139): 0.30; Hill Slope (GPR139): 0.89; Lipophilic Efficiency (logD) (GPR139): 4.08; Lipophilic Efficiency (logP) (GPR139): 4.08; EC50 (GPR139; HEK-GPR139 cells): 450 nM
COc1cc(C(C)=O)ccc1OCC(=O)OCC(=O)NCCCc1ccccc1 [SR-01000056458] | 2.66 | 2.66 | 19.25 ± 6.92 | 119.47 ± 9.11 | 5.10 | 5.10 | 0.52 | 0.35 | 50.9 | > 14100 |  |  |  |  | 
CC1(c2ccc(Cl)cc2)NC(=O)N(CC(=O)NCc2cccs2)C1=O (stereo not shown) [SR-01000058107] |  |  |  | 95.61 ± 13.32 | 5.35 | 5.35 | 0.85 | 0.43 | 23.3 |  | 2.55 | 2.55 | 4.84 ± 7.51 | > 14900 | 
CC1(c2ccc3ccccc3c2)NC(=O)C(CC(=O)NCc2ccco2)C1=O (stereo not shown) [SR-01000058120] |  |  |  | 103.66 ± 2.94 | 4.73 | 4.73 | 0.17 | 0.37 | 40.5 |  | 2.18 | 2.18 | 11.91 ± 6.77 | > 14300 | 
O=C(CSc1ccc(Cl)cc1)NNC(=O)c1ccc(O)cc1 [SR-01000060349] |  |  |  | 123.74 ± 9.56 | 5.31 | 5.26 | 0.81 | 0.50 | 16.2 |  | 2.34 | 2.30 | 36.27 ± 9.28 | > 15100 | 
COc1ccccc1NC(=O)NNC(=O)CSc1cc(C)c(Br)cc1C [SR-01000061624] |  |  |  | 120.81 ± 8.57 | 4.01 | 4.00 | 1.00 | 0.43 | 12 |  | 0.94 | 0.93 | 13.43 ± 5.07 | > 14100 | 
CCCCNC(=O)NNC(=O)CSc1cc(C)c(Br)cc1C [SR-01000061818] |  |  |  | 110.53 ± 3.36 | 4.41 | 4.41 | 0.71 | 0.50 | 16.3 |  | 1.46 | 1.46 | 3.00 ± 9.38 |  | EC50 (parental HEK cells; HEK Agonist Activity, parental non-transfected HEK cells): > 14500 nM
O=C(CN1CCN(C/C=C/c2ccccc2)CC1)NCCCc1ccccc1 [SR-01000062290] | 1.34 | 1.10 | 11.38 ± 4.42 | 128.31 ± 15.25 | 3.75 | 3.51 | 0.74 | 0.36 | 58.8 | > 14900 |  |  |  |  | 
